Experimental data: PubChem BioAssay (NCI)
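Results reflect a 48-hour exposure of cells in 96-well plates to compound at five concentrations. GI50: concentration for 50% inhibition of growth. The concentration for full growth arrest is given as TGI.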

How the values were obtained:
Test in all cases: NCI-60 cell line screen, 48 h
[1] = tested on: CAKI-1 renal
[2] = tested on: HS 578T breast
[3] = tested on: T-47D breast
[4] = tested on: SN12C renal
[5] = tested on: EKVX NSCLC
[6] = tested on: OVCAR-4 ovarian
[7] = tested on: RXF 393 renal
[8] = tested on: U251 CNS
[9] = tested on: UACC-62 melanoma
[10] = tested on: HCT-15 colon

| SMILES | GI50 [1] | TGI [1] | GI50 [2] | TGI [2] | GI50 [3] | TGI [3] | GI50 [4] | TGI [4] | GI50 [5] | TGI [5] | GI50 [6] | TGI [6] | GI50 [7] | TGI [7] | GI50 [8] | TGI [8] | GI50 [9] | TGI [9] | GI50 [10] | TGI [10] |
| --- | --- | --- | --- | --- | --- | --- | --- | --- | --- | --- | --- | --- | --- | --- | --- | --- | --- | --- | --- | --- |
| C[C@@]12CCC[C@@](C)(C(=O)O)C1CC[C@]13CC(=O)[C@](CO)(C1)[C@@H](O)CC32 (stereo not given in full) | > 100 µM | > 100 µM | > 100 µM | > 100 µM | > 100 µM | > 100 µM | > 100 µM | > 100 µM | > 100 µM | > 100 µM | > 100 µM | > 100 µM | > 100 µM | > 100 µM | > 100 µM | > 100 µM | > 100 µM | > 100 µM | > 100 µM | > 100 µM |
| O=S(=O)(Nc1ccc(Cl)cc1Cl)c1ccc(-c2cnc(C3CC3)o2)cc1 | 0.505 µM | 55.9 µM | 0.365 µM | 48.5 µM | 0.475 µM | > 85.8 µM | 1.4 µM | 46.2 µM | 2.56 µM | 88.6 µM | 3.72 µM | > 100 µM | 0.359 µM | 7.41 µM | 0.613 µM | 33.8 µM | 0.391 µM | 26.7 µM | 0.445 µM | 40.4 µM |
| C[C@H](Nc1cc(Cl)nc2c1cnn2[C@@H]1O[C@H](COP(=O)(O)CP(=O)(O)O)[C@@H](O)[C@H]1O)c1ccccc1F | > 100 µM | > 100 µM | > 100 µM | > 100 µM | > 100 µM | > 100 µM | > 100 µM | > 100 µM | > 100 µM | > 100 µM | > 100 µM | > 100 µM | > 100 µM | > 100 µM | > 100 µM | > 100 µM | > 100 µM | > 100 µM | > 100 µM | > 100 µM |
| O=C(NNc1ccccc1)C(=O)NNc1ccccc1 | 0.795 µM | > 100 µM | > 100 µM | > 100 µM | 0.52 µM | > 100 µM | > 100 µM | > 100 µM | > 100 µM | > 100 µM | 1.83 µM | > 100 µM | > 100 µM | > 100 µM | > 100 µM | > 100 µM | 0.43 µM | > 100 µM | 0.746 µM | > 100 µM |
| COC(=O)c1ccc2c(c1)/C(=C\c1cc(Br)c(O)c(Br)c1)C(=O)N2 | 4.68 µM | > 25 µM | 4.75 µM | > 22.6 µM | 8.72 µM | > 25 µM | 10 µM | > 25 µM | 15.8 µM | > 25 µM | 7.96 µM | > 25 µM | 6.06 µM | > 21.2 µM | 6.59 µM | > 25 µM | 2.77 µM | 8.8 µM | 5.47 µM | > 25 µM |
| O=C(O)c1ccc(C(=O)O)c2c(C(=O)O)ccc(C(=O)O)c12 |  | > 100 µM |  | > 100 µM |  | > 100 µM |  | > 100 µM |  | > 100 µM |  | > 100 µM |  | > 100 µM |  | > 100 µM |  | > 100 µM |  | > 100 µM |
| CCc1ccc(/C=C/c2ccc(O)c3ncccc23)[n+](C)c1 | 39.2 µM | > 100 µM | 51.2 µM | > 100 µM | 1.66 µM | > 100 µM | 0.457 µM | > 100 µM | 0.777 µM | > 100 µM | 5.6 µM | > 100 µM | > 100 µM | > 100 µM | 0.661 µM | > 100 µM | > 21.5 µM | > 100 µM | 40.9 µM | > 100 µM |
